Holding throughout (assay): OATP substrate identification, uptake in stably transfected HEK293 cells
For one data set, the target named is T1, OATP2B1 (Homo sapiens, UniProt O94956).
T1 sequence (O94956 1-709): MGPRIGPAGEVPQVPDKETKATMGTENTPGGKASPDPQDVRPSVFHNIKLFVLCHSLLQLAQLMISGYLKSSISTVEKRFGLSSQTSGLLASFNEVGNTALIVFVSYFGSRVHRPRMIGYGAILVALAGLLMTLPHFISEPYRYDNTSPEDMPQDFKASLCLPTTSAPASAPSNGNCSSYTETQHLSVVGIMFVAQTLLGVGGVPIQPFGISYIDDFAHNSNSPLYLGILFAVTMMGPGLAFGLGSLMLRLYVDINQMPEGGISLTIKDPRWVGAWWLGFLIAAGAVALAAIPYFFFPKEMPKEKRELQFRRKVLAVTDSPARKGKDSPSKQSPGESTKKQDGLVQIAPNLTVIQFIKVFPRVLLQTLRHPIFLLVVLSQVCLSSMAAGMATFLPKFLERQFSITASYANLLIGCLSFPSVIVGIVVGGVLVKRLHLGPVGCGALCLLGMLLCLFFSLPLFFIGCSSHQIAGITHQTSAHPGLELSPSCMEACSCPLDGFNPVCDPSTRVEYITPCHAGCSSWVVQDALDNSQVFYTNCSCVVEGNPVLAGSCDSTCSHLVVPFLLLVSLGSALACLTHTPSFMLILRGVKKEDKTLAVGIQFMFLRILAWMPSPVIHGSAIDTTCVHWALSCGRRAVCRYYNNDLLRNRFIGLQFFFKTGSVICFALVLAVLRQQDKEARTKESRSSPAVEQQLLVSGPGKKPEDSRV
The settings on record: for uptake in cells transfected with OATP2B1 versus WT cells: 1 and 10 μM, 10 mins. As for the experimental part:
(§1) Daily changes of medium were performed and on the second day after seeding using medium containing 10 mM sodium butyrate.
(§2) Stably transfected HEK cells and control vector-transfected HEK293 cells were first washed (3 × 1 mL) with prewarmed HBSS (pH 7.4) and then were incubated with 250 μL of HBSS containing compounds at concentrations of 1 and 10 μM. Cells were incubated for 10 mins at 37 °C for all experiments. After incubation, uptake was stopped by aspirating the incubation solution and washing each well 3 times with 200 μL of ice-old HBSS. The cells were lysed in 150 μL of 1 M NaOH for 30 mins, and then neutralized by adding equal volumes of 1 M HCl.
(§3) The following equations (3 and 4) were used to calculate the uptake rates (U, pmol/mg/min) and the OATP1B1, OATP1B3, OATP2B1 and OATP1A2 uptake ratio (UR):3 U=Clysate/P×T 4 UR=UOATP1B1/1B3/2B1/1A2/UHEK293−MOCK where C lysate is the compound concentration in cell lysates. P is the protein concentration in cell lysates. T is the incubation time. U OATP1B1/1B3/2B1/1A2 is the uptake rate obtained in HEK293 stably transfected OATP1B1, OATP1B3, OATP2B1 or OATP1A2 transportation. U HEK293-MOCK is the uptake rate obtained in control vector-transfected HEK293 transportation.

The next data set has as its target T2, OATP1A2 (Homo sapiens, UniProt P46721).
T2 sequence (P46721 1-670): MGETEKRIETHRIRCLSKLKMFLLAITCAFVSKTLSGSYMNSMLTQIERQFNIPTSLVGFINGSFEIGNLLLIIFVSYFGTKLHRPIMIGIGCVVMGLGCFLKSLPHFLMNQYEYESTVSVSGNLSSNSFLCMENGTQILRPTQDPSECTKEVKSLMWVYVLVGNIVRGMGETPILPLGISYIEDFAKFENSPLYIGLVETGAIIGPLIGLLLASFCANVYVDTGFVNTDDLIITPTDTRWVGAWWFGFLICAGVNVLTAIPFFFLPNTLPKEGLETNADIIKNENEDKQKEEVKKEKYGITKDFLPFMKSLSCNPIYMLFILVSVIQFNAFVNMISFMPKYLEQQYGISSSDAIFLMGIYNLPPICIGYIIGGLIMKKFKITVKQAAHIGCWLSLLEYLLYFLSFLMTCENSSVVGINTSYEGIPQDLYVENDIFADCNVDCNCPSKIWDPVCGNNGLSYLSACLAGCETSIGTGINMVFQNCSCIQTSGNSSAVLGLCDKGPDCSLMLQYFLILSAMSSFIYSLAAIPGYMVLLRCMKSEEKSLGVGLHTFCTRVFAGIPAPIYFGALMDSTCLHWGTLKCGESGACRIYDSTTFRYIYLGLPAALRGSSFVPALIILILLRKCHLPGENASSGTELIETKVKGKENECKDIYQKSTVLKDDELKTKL
Particulars: 1 and 10 μM, 10 mins. The method, then:
as §1, §2, §3

For the next data set, the target named is T3, OATP1B3 (Homo sapiens, UniProt Q9NPD5).
T3 sequence (Q9NPD5 1-702): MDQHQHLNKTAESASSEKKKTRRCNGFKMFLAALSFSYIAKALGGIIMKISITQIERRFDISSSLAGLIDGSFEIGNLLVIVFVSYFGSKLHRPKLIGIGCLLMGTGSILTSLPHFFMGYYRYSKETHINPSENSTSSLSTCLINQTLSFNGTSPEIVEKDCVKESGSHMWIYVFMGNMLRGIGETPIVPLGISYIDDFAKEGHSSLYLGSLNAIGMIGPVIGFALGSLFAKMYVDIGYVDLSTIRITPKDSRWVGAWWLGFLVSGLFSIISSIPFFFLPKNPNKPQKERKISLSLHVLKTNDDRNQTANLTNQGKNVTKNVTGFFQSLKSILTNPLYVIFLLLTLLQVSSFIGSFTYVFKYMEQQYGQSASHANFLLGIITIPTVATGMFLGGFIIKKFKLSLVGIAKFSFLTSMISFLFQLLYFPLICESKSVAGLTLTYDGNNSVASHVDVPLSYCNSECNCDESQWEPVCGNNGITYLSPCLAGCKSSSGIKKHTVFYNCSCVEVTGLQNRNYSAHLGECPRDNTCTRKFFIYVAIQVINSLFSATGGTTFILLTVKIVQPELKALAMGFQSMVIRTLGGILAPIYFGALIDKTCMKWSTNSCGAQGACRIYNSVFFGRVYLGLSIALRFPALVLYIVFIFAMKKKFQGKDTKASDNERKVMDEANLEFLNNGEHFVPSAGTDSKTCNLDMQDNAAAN
Particulars: 1 and 10 μM, 10 mins. The method, then:
as §1, §2, §3

For `COCCOCCn1c2ccccc2c2cc(/C=C/c3cc[n+](CCO)c4ccccc34)ccc21` [SLOH, (E)-1-(2-hydroxyethyl)-4-(2-(9-(2-(2-metho-xyethoxy)-ethyl)-9H-carbazol-3-yl)vinyl) quinolin-1-ium chloride], on OATP2B1, the OATP2B1 substrate identification entry is listed as “substrates” and the “uptake in cells transfected with OATP2B1 versus WT cells” value was “doubled”. In addition, at OATP1A2, the “uptake by OATP1A2 transfected HEK293 versus WT cells” value is “no significant differences”. Also, the “uptake by OATP1B3 transfected HEK293 versus WT cells” value on OATP1B3 is “no significant differences”.
For the compound `COCCOCCn1c2ccccc2c2cc(/C=C/c3cc[n+](C)c4ccccc34)ccc21.[I-]` [SLM, (E)-4-(2-(9-(2-(2-methoxyethoxy)ethyl)-9H-carbazol-3-yl)-vinyl)-1-methyl-quinolin-1-iumiodide], on OATP2B1, the OATP2B1 substrate identification entry is “substrates” and the “uptake in cells transfected with OATP2B1 versus WT cells” value was “doubled”. In addition, at OATP1A2, the “uptake by OATP1A2 transfected HEK293 versus WT cells” value is recorded as “no significant differences”. In addition, the “uptake by OATP1B3 transfected HEK293 versus WT cells” value on OATP1B3 was “no significant differences”.

The values above are taken from publication PMC5703966, “Systemic clearance and brain distribution of carbazole-based cyanine compounds as Alzheimer’s disease drug candidates” (Scientific Reports, 2017).
